Data published in PubChem BioAssay (NCI).
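Five compound concentrations were applied to cells in 96-well plates for 48 hours; endpoints were derived by simple linear interpolation of the resulting dose-response curve. Here, GI50 denotes the concentration required for 50% inhibition of growth. TGI: total growth inhibition.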

Key:
Test in all cases: inhibition of tumour cell growth, NCI panel, 48 h
[1] = tested on: OVCAR-8 ovarian
[2] = tested on: HOP-62 NSCLC
[3] = tested on: MOLT-4 leukemia
[4] = tested on: T-47D breast
[5] = tested on: KM12 colon
[6] = tested on: SW-620 colon
[7] = tested on: OVCAR-3 ovarian
[8] = tested on: HCC-2998 colon
[9] = tested on: LOX IMVI melanoma
[10] = tested on: NCI-H460 lung
[11] = tested on: HOP-92 NSCLC
[12] = tested on: NCI/ADR-RES ovarian
[13] = tested on: 786-0 renal
[14] = tested on: COLO 205 colon
[15] = tested on: OVCAR-5 ovarian
[16] = tested on: NCI-H226 lung
[17] = tested on: MDA-MB-231 breast
[18] = tested on: U251 CNS
[19] = tested on: RXF 393 renal
[20] = tested on: OVCAR-4 ovarian
[21] = tested on: K-562 leukemia
[22] = tested on: NCI-H23 lung
[23] = tested on: PC-3 prostate
[24] = tested on: ACHN renal
[25] = tested on: SK-MEL-28 melanoma
[26] = tested on: SN12C renal
[27] = tested on: SF-268 CNS
[28] = tested on: UO-31 renal
[29] = tested on: SK-MEL-2 melanoma
[30] = tested on: CCRF-CEM leukemia
[31] = tested on: UACC-257 melanoma
[32] = tested on: RPMI-8226 leukemia
[33] = tested on: IGROV1 ovarian
[34] = tested on: A549 NSCLC
[35] = tested on: HS 578T breast
[36] = tested on: SF-539 CNS
[37] = tested on: NCI-H522 lung
[38] = tested on: HCT-116 colon
[39] = tested on: M14 melanoma
[40] = tested on: SK-MEL-5 melanoma
[41] = tested on: TK-10 renal
[42] = tested on: BT-549 breast
[43] = tested on: SNB-19 CNS
[44] = tested on: HCT-15 colon
[45] = tested on: A498 renal
[46] = tested on: MDA-MB-435
[47] = tested on: CAKI-1 renal
[48] = tested on: EKVX NSCLC
[49] = tested on: UACC-62 melanoma
[50] = tested on: HL-60(TB) leukemia
[51] = tested on: SNB-75 CNS
[52] = tested on: MCF7 breast
[53] = tested on: DU-145 prostate
[54] = tested on: SF-295 CNS
[55] = tested on: SK-OV-3 ovarian
[56] = tested on: HT29 colon
[57] = tested on: MALME-3M melanoma
[58] = tested on: SR leukemia

CN1CCN(Cc2ccc(NC(=O)c3cncc(C#Cc4cnc5ccc(O[C@H]6CCOC6)nn45)c3)cc2C(F)(F)F)CC1
GI50 [1]: 0.675 µM | TGI [1]: 1.54 µM | GI50 [2]: 0.505 µM | TGI [2]: 1.28 µM | GI50 [3]: 0.289 µM | TGI [3]: 2.72 µM | GI50 [4]: 0.934 µM | TGI [4]: 2.21 µM | GI50 [5]: 0.005 µM | TGI [5]: 0.725 µM | GI50 [6]: 0.177 µM | TGI [6]: 0.871 µM | GI50 [7]: 0.591 µM | TGI [7]: 1.29 µM | GI50 [8]: 0.341 µM | TGI [8]: 0.964 µM | GI50 [9]: 0.186 µM | TGI [9]: 0.743 µM | GI50 [10]: 0.341 µM | TGI [10]: 0.962 µM | GI50 [11]: 0.0551 µM | TGI [11]: 0.275 µM | GI50 [12]: 1.12 µM | TGI [12]: 3.1 µM | GI50 [13]: 0.187 µM | TGI [13]: 0.397 µM | GI50 [14]: 0.227 µM | TGI [14]: 0.828 µM | GI50 [15]: 0.381 µM | TGI [15]: 1.21 µM | GI50 [16]: 0.123 µM | TGI [16]: 1.04 µM | GI50 [17]: 0.174 µM | TGI [17]: 0.85 µM | GI50 [18]: 0.575 µM | TGI [18]: 1.28 µM | GI50 [19]: 0.681 µM | TGI [19]: 1.44 µM | GI50 [20]: 0.49 µM | TGI [20]: 1.34 µM | GI50 [21]: 0.005 µM | TGI [21]: 0.544 µM | GI50 [22]: 0.245 µM | TGI [22]: 1 µM | GI50 [23]: 0.72 µM | TGI [23]: 2.28 µM | GI50 [24]: 0.396 µM | TGI [24]: 1.04 µM | GI50 [25]: 0.41 µM | TGI [25]: 1.11 µM | GI50 [26]: 0.307 µM | TGI [26]: 1.06 µM | GI50 [27]: 0.593 µM | TGI [27]: 1.42 µM | GI50 [28]: 0.27 µM | TGI [28]: 0.853 µM | GI50 [29]: 0.431 µM | TGI [29]: 1.12 µM | GI50 [30]: 0.305 µM | TGI [30]: 4.76 µM | GI50 [31]: 0.653 µM | TGI [31]: 1.38 µM | GI50 [32]: 0.815 µM | TGI [32]: 2.74 µM | GI50 [33]: 0.177 µM | TGI [33]: 0.818 µM | GI50 [34]: 0.475 µM | TGI [34]: 1.45 µM | GI50 [35]: 0.555 µM | TGI [35]: 1.59 µM | GI50 [36]: 0.171 µM | TGI [36]: 0.771 µM | GI50 [37]: 0.562 µM | TGI [37]: 1.32 µM | GI50 [38]: 0.0456 µM | TGI [38]: 0.212 µM | GI50 [39]: 0.0975 µM | TGI [39]: 0.28 µM | GI50 [40]: 0.716 µM | TGI [40]: 1.4 µM | GI50 [41]: 0.484 µM | TGI [41]: 1.13 µM | GI50 [42]: 0.375 µM | TGI [42]: 0.783 µM | GI50 [43]: 1.21 µM | TGI [43]: 3.24 µM | GI50 [44]: 0.385 µM | TGI [44]: 1.4 µM | GI50 [45]: 0.871 µM | TGI [45]: 1.59 µM | GI50 [46]: 0.159 µM | TGI [46]: 0.705 µM | GI50 [47]: 0.226 µM | TGI [47]: 0.744 µM | GI50 [48]: 0.623 µM | TGI [48]: 1.35 µM | GI50 [49]: 0.488 µM | TGI [49]: 1.16 µM | GI50 [50]: 0.194 µM | TGI [50]: 0.692 µM | GI50 [51]: 0.295 µM | TGI [51]: 0.795 µM | GI50 [52]: 0.149 µM | TGI [52]: 0.752 µM | GI50 [53]: 0.521 µM | TGI [53]: 1.18 µM | GI50 [54]: 0.748 µM | TGI [54]: 1.51 µM | GI50 [55]: 0.848 µM | TGI [55]: 1.76 µM | GI50 [56]: 0.194 µM | TGI [56]: 0.826 µM | GI50 [57]: 0.0976 µM | TGI [57]: 0.438 µM | GI50 [58]: 0.284 µM | TGI [58]: 1.44 µM
